Test results reported in patent US20220111019A1, “BRCA1 MODULATING COMPOUNDS, FORMULATIONS THEREOF, AND USES THEREOF” (VIRGINIA TECH INTELLECTUAL PROPERTIES, INC., priority 2018, published 2022).
pIC50: −log10 of the molar value. “Also recorded” adds a separate entry of the source.

Tests used:
BRCA1 = settings: HCC70 cells, 1 mM H2O2, replicate experiments
Method: (§1) Authentication of cells, cell culture, and protein enrichment. Breast cancer cells (HCC70 and HCC1937 lines) used in this study were purchased from the American Type Culture Collection (ATCC) and independently characterized by ATCC as being triple negative primary ductal carcinoma cells. For all experiments, cells were promptly used within 6 months of resuscitation. Cells were cultured in RPMI-1640 (Mediatech) supplemented with 10% fetal bovine serum (ATCC) and 0.5× penicillin-streptomycin (Thermo Fisher) at 37° C. and 5% CO2 environment. BRCA1-BARD1 complexes were enriched as previously described (25). Briefly, about 1,000,000 cells were collected using Trypsin-EDTA (Thermo Fisher) followed by centrifugation (500×g, 5 minutes). For experiments involving hydrogen peroxide (H2O2), cells were collected with cell scrapers after treated with 1 mM of H2O2 (Sigma Aldrich) for 40 minutes at 37° C. and 5% CO2. Sub-cellular fractions (cytoplasmic and nuclear) were separated using the NE-PER kit (Thermo Scientific). The soluble nuclear material was incubated with Ni-NTA agarose beads (Qiagen) and incubated with rotation for 1 hour at 4° C. The beads were washed with five bed volumes of 20 mM HEPES buffer (pH 7.2, 140 mM NaCl, 2 mM CaCl2, 2 mM MgCl2 and 5 mM imidazole).

BARD1 = settings: HCC70 cells, 1 mM H2O2, replicate experiments
Method: as §1

[1] = system: 8-Oxo-Guanine (8-Oxo-G) accumulation in HCC1937 cells; experiment: Immunofluorescence detection of 8-Oxo-Guanine DNA lesions; format: cell-based, human; settings: for 8-Oxo-G accumulation in and around the nucleus: single treatment (ML364 in IC50 range or 1 mM H2O2 10 minutes)
Method: Fluorescence microscopy. The production of 8-Oxo-Guanine (8-Oxo-G) DNA lesions was detected by fluorescence imaging as previously described (10, 11). Briefly, HCC1937 cells (about 40,000 cells/chamber) were plated in an eight-chamber slide and incubated at 37° C. and 5% CO2 overnight. Cells were treated with complete culture media containing 1 mM H2O2 for 10-20 minutes to induce oxidative damage in the nucleus. Cells were then wash with 1× PBS and treated with ML364 (7 μM-9 μM) for up to 48 hours at 37° C. and 5% CO2. Control cells were cultured in media without H2O2 and ML364 during the same time period. Cells were washed with standard PBS solution and fixed with 4% paraformaldehyde (Electron Microscopy Sciences) for 15 minutes. The fixed cells were permiabilized by PBS solution containing 0.5% Triton X-100 (Sigma) for 10 minutes. After 1-hour blocking step with PBS supplemented with 10% normal goat serum (Jackson Immuno Research) and 0.2% Triton X-100, cells were incubated with anti-8-OxoG DNA Lesion (483.15; Santa Cruz Biotechnology) at 4° C. overnight. The 8-OxoG DNA lesions were detected with goat anti-mouse IgM-TR (Santa Cruz Biotechnology) and nuclei were stained with Hoechst 33342. An inverted fluorescence microscope (Zeiss Axio Vert.A1; Carl Zeiss Microscopy) was used to image the cells.
To determine the effect of ML364 on genomic stability, we performed immunofluorescent imaging on HCC1937 breast cancer cells to detect 8-Oxo-Guanine (8-Oxo-G) (FIG. 13C). The nuclear accumulation of 8-Oxo-G in cells indicates deficiencies in DNA damage repair (10, 11). Cells were treated with H2O2 to induce oxidative DNA damage. The ML364 drug was then administered to the cells in the IC50 range. The accumulation of 8-Oxo-G was detected using monoclonal antibodies against the substrate and fluorescently-labeled secondary antibodies. […] Under oxidative stress conditions, there was a minor degree of 8-Oxo-G detected in nuclear region following 10 minutes of treatment. […]

p53R306 = experiment: Western blot quantification of p53 in lysates of treated HCC1937 cells; format: cell-based, human; settings: HCC1937 cell lysates; for decrease in p53 level: single treatment (ML364 or H2O2)
Method: (§2) Cell lysate preparations. For whole cell lysate preparations, HCC1937 cells were treated by adding 1 mM H2O2 to the culture media for 10-20 minutes, while incubating cells at 37° C. and 5% CO2. Following each incubation time, cells were washed with 1× PBS (Sigma) to eliminate residual H2O2. The cells were then treated with 7 μM-9 μM ML364 (Axon Medchem) for up to 48 hours at 37° C. and 5% CO2. Control cells were cultured in media lacking H2O2 and/or ML364 during the same time period. Cells were collected and washed with ice-cold 1× PBS once followed by centrifugation at 500×g for 5 minutes. Cell pellets were lysed by resuspending the pellets in buffer solution containing 20 mM HEPES (pH 6.8), 150 mM NaCl, 2.5 mM CaCl2, 2.5 mM MgCl2, 1 mM EDTA, 2% Nonidet-P40 (NP40), 1% Nadeoxycholate, 2× protease inhibitors (Sigma), 1× phosphatase inhibitors (Sigma), and 8% glycerol. The lysis mixture was incubated on ice for 30 minutes and centrifuged at 21,000×g for 15 minutes at 4° C. The supernatants were collected and protein concentrations were quantified using the standard Pierce Bradford assay.
(§3) SDS-Page, immunoblotting, and densitometry measurements. Protein fractions were also analyzed by SDS-PAGE denaturing gels followed by staining with SimplyBlue SafeStain solution (Invitrogen) or Western blotting as previously described (10). For Western blot analysis, the following primary antibodies were used: BRCA1 (C-20; Santa Cruz Biotechnology, sc-642), ubiquitin-pAb (Enzo Life Sciences, ADI-SPA-200), p53 (DO-1; Santa Cruz Biotechnology, sc-126), K63-linkage specific polyubiquitin (D7A11; Cell Signaling, #5621) and p-actin (Sigma-Aldrich, A5441). Western blot quantification was performed using Image Labrm Software (Bio-Rad). The intensity of each band was selected using the volume tool. Local subtraction and linear regression methods were implemented to eliminate the local background values and to quantify the band intensities.

HCC1937 cells [2] = experiment: MTS cell viability assay after H2O2 and/or ML364 treatment; format: cell-based, human; settings: 1 mM H2O2 10 min, vs untreated cells
Method: (§4) Cell viability and proliferation assays. To determine cellular viability, we used the CellTiter 96® AQueous One Solution Cell Proliferation Assay (MTS; Promega). HCC1937 were seeded (about 4000 cells per well) in a 96-well plate at 37° C. and 5% CO2 overnight. Following a 10-minute incubation with culture media containing 1 mM H2O2, cells were washed with PBS solution and further treated with 7 μM ML364 for 24 hours at 37° C. with 5% CO2. Control cells were cultured in media lacking H2O2 and/or ML364 during the same time period. Culture media and containing MTS reagent was added to each well. The titer plate was incubated 37° C. and 5% CO2 for 1-4 hours. Absorbance values were measured at 490 nm using iMark microplate reader (Bio-Rad). MTS was also used to determine cell growth following ML364 treatment. HCC1937 cells were plated (about 1500 cells per well) in a 96-well plate at 37° C. and 5% CO2 overnight. Cells were treated with DMSO and ML364 at the different doses (2.5 μM-80 μM). After 3 days of incubation, cell viability was measured using the MTS reagent. Cellular survival was calculated by dividing the absorbance of the treated groups by those of the untreated groups (DMSO). Values for the half-maximal inhibitory concentration (IC50) were obtained using Prism software package (GraphPad).
Targeting cancer cells that express mutated BRCA1. As described elsewhere herein, mutated BRCA1 can be fine-tuned in vitro. The application of this aspect of the techology to treat cancer cells was evaluated. Enhancing the activity of tumor suppressors in healthy cells can facilitate their growth and resilience. Conversely, treating cancer cells with drugs that limit DNA repair may lessen their survival. Poly(ADP-Ribose) Polymerase (PARP) inhibitors have been used to treat BRCA1-related cancers (25-28). A limited-repair paradigm approach was developed and used treated breast cancer cells (HCC1937 line) with the DUB inhibitor, ML364 (Axon Ligands™). […] The viability of treated cells and untreated cells was quantified using MTS assay measurements.

mutated BRCA1 = experiment: Western blot quantification of BRCA1 in lysates of treated HCC1937 cells; format: cell-based, human; settings: HCC1937 cell lysates; for decrease in BRCA1 level: single treatment (ML364 or H2O2)
Method: as §2, §3

HCC1937 cells [3] = experiment: MTS cell growth assay after ML364 treatment (IC50); format: cell-based, human; settings: 3 days of incubation, doses 2.5 μM-80 μM, read-out: half maximal inhibitory concentration (IC50) range
Method: as §4, with “Cells were treated with DMSO and ML364 at the different doses (2.5 μM-80 μM).” left out, “Values for the half-maximal inhibitory concentration (IC50) were obtained using Prism software package (GraphPad).” left out
Targeting cancer cells that express mutated BRCA1. […] The application of this aspect of the techology to treat cancer cells was evaluated. […] The viability of treated cells and untreated cells was quantified using MTS assay measurements.

p53 = experiment: Ubiquitin ligase assay in T98G nuclear extracts; format: biochemical, human; settings: T98G nuclear reaction mixtures, 37° C., 1 hour, vs control samples
Method: Ubiquitin ligase assay. Aliquots of DUB-treated or “restored” BRCA1-BARD1 (0.2 mg/ml) were incubated with 10 μM ML364 (USP2 inhibitor) at 37° C. for 1 hour to halt USP2 activity. Samples were then stored overnight at 4° C. The restored BRCA1-BARD1 fractions were added in varying amounts to soluble nuclear extracts prepared from T98G cells. T98G cells naturally produced low levels of BRCA1. Control samples lacked restored BRCA1-BARD1. The reaction mixtures were incubated in a water bath at 37° C. for 1 hour.
Wild-type p53-caught in the act of repair. The extent to which restored BRCA1 could enhance the ubiquitin ligase activity of cells with inherently low levels of BRCA1 (T98G line) (FIGS. 16A-16C) was evaluated. Quantities of restored BRCA1-BARD1 were added to nuclear reaction mixtures prepared from T98G cells, and changes in ubiquitination were assessed over multiple experiments (FIG. 12A). To simplify the results, modifications to the p53 monomer was first evaluated. According to Western blots, full-length p53 migrated at about 50 kDa while ubiquitnated monomers migrated close to about 68 kDa (FIGS. 12B and 16A-16C). Proteins receiving K63-linked ubiquitin adducts are often involved in autophagy and DNA repair (22), (23), (24). […] As the T98G cells naturally produced little BRCA1, we attributed the increase in ubiquitin ligase activity to the restored BRCA1-BARD1 supplement.

| pIC50 (HCC1937 cells [3]) | increase in K63-type ubiquitin adducts on p53 (ubiquitination of p53) (p53) | Compound | decrease in BRCA1 level (BRCA1) | decrease in BARD1 level (BARD1) | 8-Oxo-G accumulation in and around the nucleus [1] | decrease in p53 level (p53R306) | cytotoxicity at 1000 µM (HCC1937 cells [2]; Homo sapiens, ML364 and H2O2 given separately, 7 μM ML364 24 hours, read-out: decrease in viability) [%] | decrease in BRCA1 level (mutated BRCA1) | 8-Oxo-G accumulation, combination of H2O2 and ML364 ([1]; 1 mM H2O2 then ML364 in IC50 range, up to 48 hours) | decline in p53 level, combination of H2O2 and ML364 (p53R306; H2O2 then ML364) | decline in viability, combined treatment (HCC1937 cells [2]; then 7 μM ML364 24 hours) | decrease in viability (HCC1937 cells [2]; ML364 and H2O2 given separately, 7 μM ML364 24 hours) | decline in BRCA1 level, combination of H2O2 and ML364 (mutated BRCA1; H2O2 then ML364) |
| --- | --- | --- | --- | --- | --- | --- | --- | --- | --- | --- | --- | --- | --- |
| – | – | OO [H2O2, hydrogen peroxide] | 10-20% | 10-20% | minor degree | 15-20% | ~50 | 15-20% | – | – | – | – | – |
| 5.00 to 5.15 | – | Cc1ccc(S(=O)(=O)Nc2cc(C(F)(F)F)ccc2C(=O)Nc2nc(-c3ccccc3)cs2)cc1 [ML364] | – | – | more abundant; also recorded: higher level | about 30% | – | about 30% | greatest 8-Oxo-G buildup; also recorded: greatest degree; also recorded: higher level | about 50% | about 70% | about 50% | about 50% |
| – | about 24% | wild-type BRCA1-BARD1: wild type BRCA1-BARD1 heterodimer used as supplement for comparison | – | – | – | – | – | – | – | – | – | – | – |
